According to patent US11779597B2, “Method of treating Parkinson's and other neurodegenerative diseases” (Vector Vitale IP LLC, priority 2019, dated 2023):

Tests used:
[1] = test system: dopaminergic neurons in the black substance in rat models of Parkinson's disease (6-OHDA); experiment: Apomorphine test / destruction of dopaminergic neurons after prophylactic administration; type: in vivo; details: 6-OHDA rat models
Method: Methods: Adult mature rodents were used in the study. […] Before prophylactic administration of the experimental drugs, the animals underwent an open field test to assay their general locomotor activity levels and anxiety. The prophylactic course consisted of 10 daily intraperitoneal injections of the drugs (in the case of combination drug, its components were administered at an interval of 2 hours). After the end of prophylactic course, Parkinson's disease was modelled in the animals. […] Ten days after the last (second) apomorphine test, the animals' behavioral responses were assessed in the open field test followed by euthanasia and analysis of functional (metabolic and phenotypic) profiles of phagocytes of different localization. Thus, the study of the functional profile of phagocytes in rat models of Parkinson's disease was performed on day 28 after the end of the course of prophylactic treatment with the experimental drugs. Resident peritoneal macrophages were isolated from sterile cell suspension of peritoneal exudate; enrichment of the suspension was carried out by 2-hour adhesion. Non-adherent and dead cells were separated by centrifugation. Functional characteristics of circulating phagocytes (monocytes and neutrophils) were evaluated in whole blood taken into a tube containing EDTA used as an anticoagulant. Mononuclear and polymorphonuclear phagocytes were analyzed on a flow cytofluorimeter using a gating method. Phagocytes of microglia were isolated using a Percoll density gradient. To assess the phenotypic profile of phagocytes, expression indices of the pan-phagocytic marker CD14 (co-receptor of the bacterial lipopolysaccharide) and the marker of alternative polarization of phagocytes CD206 (mannose receptor 1) were used. […] The hemogram parameters were analyzed on the hematological analyzer Particle counter model PCE 210 (ERMA, Japan) adapted for the study of blood cells of rats and mice.

[2] = test system: LPS rat models of Parkinson's disease; experiment: Pick-up test; type: in vivo; details: group V (LPS+^64Zn-asp) versus group IV (LPS)
Source text: The pick-up test is a test for increased irritability. The animal is picked up by grasping around the body. Responses were scored as 1, very easy; 2, easy with vocalizations; 3, some difficulty, the rat rears and faces the hand; 4, the rat freezes (with or without vocalization); 5, difficult, the rat avoids the hand by moving away; and 6, very difficult, the rat behaves defensively, and may attack the hand.
On the 1st day of the experiment, rats were either operated to model hemi-parkinsonism or sham operated. From the 9th to the 18th day of the experiment, the animals were injected either deuterium-depleted water or the test substance, according to their allocation into groups, for 10 days. […] On the 24th day of the experiment, behavioral tests were carried out in all groups.

[3] = test system: rat peripheral blood neutrophils; experiment: Metabolic profile of nonsensitized rat peripheral blood neutrophils in vitro; type: cell-based
Method: Materials and methods: Rat microglial cells were isolated by mechanical (cell sieves) disintegration of the brain tissue (FIG. 30A, FIG. 30B and FIG. 30C) followed by fractionation of the tissue homogenate in Percoll density gradient (Microglia: Methods and Protocols, Edited by Bertrand Josef and Jose Luis Venero, Springer protocol. Humana Press, 2013, 350 p.) (FIG. 31). Before the collection of the brain tissue, decapitation was performed to avoid hemorrhage to the brain during sampling (FIG. 32). Decapitation was performed immediately after anesthesia to minimize the death of brain tissue, including microglial cells. All manipulations for the isolation of microglial cells were carried out using coolants. Circulating neutrophils were isolated from venous blood taken into a tube containing EDTA in a two-step Percoll gradient (Alsharif K F et al. Vascul Pharmacol. 2015 August; 71:201-7. doi: 10.1016/j.vph.2015.02.006)(FIG. 33A and FIG. 33B). Circulating monocytes were isolated from venous blood collected into a tube containing heparin in a two-step Hypaque gradient (Macrophages and dendritic cells: Methods and Protocols, Edited by Neil E. Reiner, NY, Humana Press, 2009: 368 P). The metabolic profile of phagocytes was characterized based on the pathway of arginine metabolism (levels of arginase activity and NO synthesis measured using photocolorimetric methods), the level of formation of intracellular reactive oxygen species (ROS) by esterases and the indices of phagocytic activity determined by flow cytofluorimetry, as well as according to the activation levels of NADH and NADPH oxidases determined in NBT test. Duration of treatment of phagocytes of all the above mentioned populations varied depending on the methodological characteristics of metabolic response. A 90 minute exposure to the drugs according to Kim et al., 1977 (cited above) was used to analyze their effects on oxidative metabolism and phagocytic activity. An 18 hour exposure according to Lastra et al., 2001 (cited above) was used to analyze the drug effects on arginine metabolic pathway. To analyze the effects of the drugs under study on the induced (stimulated) metabolic activity of phagocytes, the cells were treated with lipopolysaccharide (LPS) from E. coli (Sigma, USA) according to Haddad et al., 2009 (cited above).

Substance: ^64Zn-enriched zinc aspartate [^64Zne-asp]
- Number of animals with 100% destruction of neurons (%) ([1]; prophylactic 10 daily i.p. injections, at completion of the experiment): 35%
- Rate of rotational movements in animals with 100% destruction of neurons (r/30 min) ([1]; prophylactic i.p., apomorphine test): 224.3 ± 35.9 r/30 min
- animals with complete loss of neurons, less than in the control ([1]; prophylactic i.p., versus control 75%): over 50%
- irritation in the pick-up test [2]: statistically significant elevation
- arginase activity of resting and bacterial LPS-treated neutrophils [3]: remained practically unchanged
- esterase-dependent oxidative metabolism in neutrophils treated with bacterial LPS [3]: sharp decrease
- intracellular ROS production by nonsensitized neutrophils [3]: sharp decrease
- phagocytic activity of neutrophils [3]: No statistically significant effect
- synthesis of reactive nitrogen species by neutrophils after treatment with LPS [3]: moderately negative effect
- synthesis of reactive nitrogen species by resting neutrophils [3]: no significant effect
- ROS production dependent on NADH and NADPH oxidases (NBT test) in neutrophils ([3]; irrespective of treatment with bacterial LPS): strong negative effect
